Results as given in ChEMBL document CHEMBL1201862, “PubChem BioAssay data set” (2004).
Activity calls are given as the source filed them.

How the values were obtained:
[1] = target: NACHT, LRR and PYD domains-containing protein 3 (Homo sapiens, UniProt Q96P20); assay: NALP3 inhibitors in yeast, dose response, luminescent (AID 488799); assay type: functional
[2] = target: Glucose-6-phosphate 1-dehydrogenase (Homo sapiens, UniProt P11413); assay: human G6PD enzyme inhibitors, dose response, selectivity assay for P. falciparum G6PD inhibitor project, biochemical, fluorescence (AID 504792); assay type: functional
Sequence of Glucose-6-phosphate 1-dehydrogenase (P11413 whole entry): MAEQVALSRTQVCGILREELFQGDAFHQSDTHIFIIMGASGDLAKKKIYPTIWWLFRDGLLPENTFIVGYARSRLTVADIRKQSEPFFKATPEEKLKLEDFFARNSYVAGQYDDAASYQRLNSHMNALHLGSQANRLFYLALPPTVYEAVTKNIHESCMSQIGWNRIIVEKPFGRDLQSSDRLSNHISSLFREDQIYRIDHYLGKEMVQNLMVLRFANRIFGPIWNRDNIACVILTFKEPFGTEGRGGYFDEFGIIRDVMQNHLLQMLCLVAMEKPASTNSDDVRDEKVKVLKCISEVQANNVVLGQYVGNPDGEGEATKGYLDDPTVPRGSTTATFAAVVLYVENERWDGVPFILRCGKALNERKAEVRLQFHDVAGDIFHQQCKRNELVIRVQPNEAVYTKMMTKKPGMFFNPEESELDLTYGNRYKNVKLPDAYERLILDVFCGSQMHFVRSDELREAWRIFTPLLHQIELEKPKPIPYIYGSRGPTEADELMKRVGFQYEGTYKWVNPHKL

[3] = cells; assay type: functional, cell-based
[4] = Luminescence-based dose response cell-based high throughput screening assay for cytotoxic compounds using the IEC-6 intestinal epithelial cell line. [Related pubchem assays: 1858 (Summary AID.), 1825 (Counterscreen.), 1907 (Confirmation screen.)]; assay type: functional
[5] = inhibitors of SNCA 5'UTR-driven translation, confirmation, luminescence, H4 neuroglioblastoma cells, dose confirmation (AID 2454); assay type: functional, cell-based;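 note: H4 neuroglioblastoma cells carrying an alpha-synuclein 5'UTR luciferase reporter; potency for inhibition of the luciferase signal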
[6] = test system: BJ; assay: cells; assay type: functional, cell-based; details: Homo sapiens
[7] = inhibitors of SNCA 5'UTR-driven reporter translation, confirmation, H4 neuroglioma cells, luminescence (AID 1988); assay type: functional, cell-based
[8] = inhibitors of firefly luciferase expression or activity, dose response, H4 neuroglioma cells, luminescence (AID 1990); assay type: functional, cell-based
[9] = Luminescence Cell-Based Dose Response HTS to Identify Inhibitors of 5'UTR Stem-Loop Driven Prion Protein mRNA Translation in H4 Neuroglioblastoma Cells. [Related pubchem assays: 1827 (Project Summary), 1813 (Primary HTS)]; assay type: functional
[10] = luciferase reporter signal reduction – luminescence, H4-C neuroglioblastoma cells, dose response (AID 2458); assay type: functional, cell-based;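 note: H4 neuroglioblastoma cells stably carrying a luciferase reporter gene fusion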
[11] = cytotoxicity in HEK-293T cells, dose response, cytotoxicity control for TCR NF-kB inhibitor project, luminescence, T-cell screen hits (AID 489026); assay type: functional, cell-based;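 note: cells exposed to compound about 14 hours before the viability readout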
[12] = target: G-protein coupled receptor 55 (Homo sapiens, UniProt Q9Y2T6); assay: GPR55 agonists via beta-arrestin recruitment, primary screen, imaging, U2OS cells, beta-arrestin-GFP redistribution (AID 1961); assay type: functional
Sequence of G-protein coupled receptor 55 (Q9Y2T6 whole entry): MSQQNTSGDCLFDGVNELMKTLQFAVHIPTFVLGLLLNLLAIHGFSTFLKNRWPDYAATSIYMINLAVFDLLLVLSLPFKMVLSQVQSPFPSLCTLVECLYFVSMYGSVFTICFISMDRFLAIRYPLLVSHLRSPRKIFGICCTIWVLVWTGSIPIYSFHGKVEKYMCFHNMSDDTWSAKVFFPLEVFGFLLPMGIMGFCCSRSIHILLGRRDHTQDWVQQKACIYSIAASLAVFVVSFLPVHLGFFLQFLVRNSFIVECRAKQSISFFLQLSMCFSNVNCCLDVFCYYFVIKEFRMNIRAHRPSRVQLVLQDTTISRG

[13] = blockers of SFLLRN-triggered platelet ATP secretion – cell-based, human platelets, luminescence, dry powder, dose response (AID 493100); assay type: functional
[14] = target: T1, Rac GTPase-activating protein 1 (Homo sapiens, UniProt Q9H0H5); assay: MgcRacGAP GTPase-activating activity inhibitors, confirmation, biochemical, ADP Hunter fluorescence, primary and confirmatory (AID 624330); assay type: functional
T1 sequence (Q9H0H5 whole entry): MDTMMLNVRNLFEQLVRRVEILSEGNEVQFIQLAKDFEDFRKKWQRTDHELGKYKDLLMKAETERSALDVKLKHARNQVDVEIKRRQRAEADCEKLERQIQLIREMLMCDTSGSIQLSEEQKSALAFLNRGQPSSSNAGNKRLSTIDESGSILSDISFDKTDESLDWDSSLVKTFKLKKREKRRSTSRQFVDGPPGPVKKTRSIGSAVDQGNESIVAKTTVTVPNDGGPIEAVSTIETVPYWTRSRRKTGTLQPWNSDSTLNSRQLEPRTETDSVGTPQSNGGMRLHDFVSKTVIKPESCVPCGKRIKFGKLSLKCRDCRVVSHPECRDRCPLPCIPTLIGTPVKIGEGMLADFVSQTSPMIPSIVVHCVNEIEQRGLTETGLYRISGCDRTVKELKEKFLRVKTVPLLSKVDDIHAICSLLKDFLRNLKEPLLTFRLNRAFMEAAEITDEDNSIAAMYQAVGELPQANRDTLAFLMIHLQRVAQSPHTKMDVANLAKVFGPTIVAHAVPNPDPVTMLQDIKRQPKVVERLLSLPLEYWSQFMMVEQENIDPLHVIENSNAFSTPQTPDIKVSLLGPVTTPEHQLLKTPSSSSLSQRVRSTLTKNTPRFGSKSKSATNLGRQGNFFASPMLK

[15] = target: Cyclin-dependent kinase 5/CDK5 activator 1 (Homo sapiens, UniProt Q00535); assay: CDK5/p35 kinase inhibitors, dose response, biochemical, cherry-picked samples, set 2 (AID 504545)
Sequence of Cyclin-dependent kinase 5/CDK5 activator 1 (Q00535 whole entry): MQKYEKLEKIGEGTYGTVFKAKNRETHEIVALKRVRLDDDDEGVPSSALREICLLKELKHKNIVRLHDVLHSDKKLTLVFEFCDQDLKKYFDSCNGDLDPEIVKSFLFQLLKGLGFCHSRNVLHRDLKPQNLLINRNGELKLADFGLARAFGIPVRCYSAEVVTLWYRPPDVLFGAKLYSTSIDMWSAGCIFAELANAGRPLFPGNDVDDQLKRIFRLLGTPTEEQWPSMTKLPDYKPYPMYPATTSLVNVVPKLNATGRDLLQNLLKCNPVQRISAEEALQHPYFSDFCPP
Sequence of Cyclin-dependent kinase 5/CDK5 activator 1 (Q15078 whole entry, further chain): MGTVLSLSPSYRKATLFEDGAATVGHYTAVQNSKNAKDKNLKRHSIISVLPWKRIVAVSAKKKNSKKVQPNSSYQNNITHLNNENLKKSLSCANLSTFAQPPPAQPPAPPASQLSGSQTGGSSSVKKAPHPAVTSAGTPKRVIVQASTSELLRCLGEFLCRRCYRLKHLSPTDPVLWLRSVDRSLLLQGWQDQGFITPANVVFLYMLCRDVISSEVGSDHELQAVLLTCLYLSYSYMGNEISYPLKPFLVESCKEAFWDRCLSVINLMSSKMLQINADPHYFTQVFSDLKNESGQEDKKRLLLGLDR

[16] = target: Cystic fibrosis transmembrane conductance regulator/Golgi-associated PDZ and coiled-coil motif-containing protein (Homo sapiens, UniProt P13569+Q9HD26); assay: CAL PDZ peptide-binding inhibitors, dose response, biochemical, fluorescence polarization, Cerulean-tagged CAL PDZ, cherry-picks (AID 504773)
Sequence of Cystic fibrosis transmembrane conductance regulator/Golgi-associated PDZ and coiled-coil motif-containing protein (P13569 whole entry, other chains not shown): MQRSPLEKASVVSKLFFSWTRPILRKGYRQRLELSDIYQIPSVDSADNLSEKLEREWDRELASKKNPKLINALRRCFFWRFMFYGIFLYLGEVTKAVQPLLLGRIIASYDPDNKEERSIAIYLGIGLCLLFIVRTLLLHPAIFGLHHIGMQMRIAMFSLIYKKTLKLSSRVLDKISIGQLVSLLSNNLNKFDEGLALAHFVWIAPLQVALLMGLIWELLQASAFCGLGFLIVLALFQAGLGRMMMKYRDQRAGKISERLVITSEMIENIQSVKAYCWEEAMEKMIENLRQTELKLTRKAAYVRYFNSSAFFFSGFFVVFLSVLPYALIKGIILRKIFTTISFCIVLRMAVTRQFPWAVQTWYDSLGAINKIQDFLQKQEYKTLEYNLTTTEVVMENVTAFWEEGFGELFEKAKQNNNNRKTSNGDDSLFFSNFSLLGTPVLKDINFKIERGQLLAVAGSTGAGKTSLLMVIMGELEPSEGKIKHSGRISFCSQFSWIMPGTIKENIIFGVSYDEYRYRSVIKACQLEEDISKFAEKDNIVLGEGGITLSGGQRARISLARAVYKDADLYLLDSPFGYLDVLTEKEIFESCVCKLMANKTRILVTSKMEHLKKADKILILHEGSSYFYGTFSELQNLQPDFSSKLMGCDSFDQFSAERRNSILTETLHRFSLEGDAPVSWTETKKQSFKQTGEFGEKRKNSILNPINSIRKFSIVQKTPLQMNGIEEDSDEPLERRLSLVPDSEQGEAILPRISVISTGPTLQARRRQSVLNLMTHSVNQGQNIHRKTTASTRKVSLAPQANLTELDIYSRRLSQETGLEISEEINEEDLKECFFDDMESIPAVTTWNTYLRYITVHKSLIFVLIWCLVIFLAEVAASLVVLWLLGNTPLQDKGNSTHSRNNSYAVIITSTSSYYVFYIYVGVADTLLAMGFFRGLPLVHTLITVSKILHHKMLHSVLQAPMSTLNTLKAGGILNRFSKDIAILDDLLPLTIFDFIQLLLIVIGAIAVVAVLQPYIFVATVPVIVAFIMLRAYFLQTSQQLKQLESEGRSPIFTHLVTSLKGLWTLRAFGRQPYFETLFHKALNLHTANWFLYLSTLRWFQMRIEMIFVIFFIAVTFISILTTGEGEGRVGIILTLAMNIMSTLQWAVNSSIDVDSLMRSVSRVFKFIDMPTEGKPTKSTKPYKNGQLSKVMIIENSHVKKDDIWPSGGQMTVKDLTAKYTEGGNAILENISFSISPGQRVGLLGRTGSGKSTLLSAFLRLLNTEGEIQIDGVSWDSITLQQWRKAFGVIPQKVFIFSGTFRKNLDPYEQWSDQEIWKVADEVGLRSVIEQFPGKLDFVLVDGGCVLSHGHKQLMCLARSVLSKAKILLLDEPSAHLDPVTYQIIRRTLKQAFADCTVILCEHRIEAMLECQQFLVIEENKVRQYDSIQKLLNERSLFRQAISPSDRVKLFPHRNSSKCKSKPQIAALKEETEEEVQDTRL

[17] = target: T2, Eukaryotic translation initiation factor 2-alpha kinase 3 (Homo sapiens, UniProt Q9NZJ5); assay: Counterscreen assay for PERK inhibitors: Dose response cell-based high throughput screening assay to measure inhibition of PERK at 6 hours. [Related pubchem assays: 1522, 1416 ]; assay type: functional
T2 sequence (Q9NZJ5 whole entry): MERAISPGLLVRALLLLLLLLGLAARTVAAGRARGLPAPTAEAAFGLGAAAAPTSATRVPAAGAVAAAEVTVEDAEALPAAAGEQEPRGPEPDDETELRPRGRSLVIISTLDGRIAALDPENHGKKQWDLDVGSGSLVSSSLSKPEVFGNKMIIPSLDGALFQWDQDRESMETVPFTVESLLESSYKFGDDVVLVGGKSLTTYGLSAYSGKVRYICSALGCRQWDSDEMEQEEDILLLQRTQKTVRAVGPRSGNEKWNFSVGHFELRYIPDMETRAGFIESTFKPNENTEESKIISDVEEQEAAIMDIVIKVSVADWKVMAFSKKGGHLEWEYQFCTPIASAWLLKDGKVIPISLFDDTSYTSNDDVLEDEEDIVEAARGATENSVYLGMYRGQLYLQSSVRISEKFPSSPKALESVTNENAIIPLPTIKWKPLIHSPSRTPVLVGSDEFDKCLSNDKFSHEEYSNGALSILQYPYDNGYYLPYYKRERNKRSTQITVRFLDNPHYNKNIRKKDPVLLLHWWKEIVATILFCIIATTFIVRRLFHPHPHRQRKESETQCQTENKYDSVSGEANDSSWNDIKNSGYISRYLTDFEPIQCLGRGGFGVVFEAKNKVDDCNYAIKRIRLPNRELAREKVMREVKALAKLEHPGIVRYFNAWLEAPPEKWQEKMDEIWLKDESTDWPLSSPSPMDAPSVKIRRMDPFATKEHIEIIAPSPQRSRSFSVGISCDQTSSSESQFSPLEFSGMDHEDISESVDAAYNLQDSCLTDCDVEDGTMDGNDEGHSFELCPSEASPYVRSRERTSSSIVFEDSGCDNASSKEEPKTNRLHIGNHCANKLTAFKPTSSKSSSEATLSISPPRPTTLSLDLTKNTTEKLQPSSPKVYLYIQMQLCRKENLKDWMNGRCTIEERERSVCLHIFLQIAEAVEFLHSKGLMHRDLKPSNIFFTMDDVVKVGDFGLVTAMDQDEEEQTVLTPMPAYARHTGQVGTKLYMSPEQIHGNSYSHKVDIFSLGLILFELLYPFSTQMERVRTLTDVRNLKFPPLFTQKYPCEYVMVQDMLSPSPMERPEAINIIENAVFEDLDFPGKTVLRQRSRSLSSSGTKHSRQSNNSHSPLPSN

[18] = test system: P388/ADR; assay: cells; assay type: functional; details: Mus musculus
[19] = test system: BJ; assay: cytotoxicity toward Ras-transformed BJeLR fibroblasts, dose response, cell-based, alamar blue fluorescence, cherrypicked samples (AID 2631); assay type: functional; details: Homo sapiens;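 note: confirmatory dose-response assay in RAS-dependent BJ fibroblasts engineered with TERT, LT and ST, with cytotoxicity read by fluorescence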
[20] = test system: SN12K1; assay: cells; assay type: functional; details: Homo sapiens
[21] = target: T2, Eukaryotic translation initiation factor 2-alpha kinase 3; assay: Dose response cell-based high-throughput screening assay to measure PERK inhibition. [Related pubchem assays: 1416 ]; assay type: functional
[22] = test system: P388; assay: cells; assay type: functional; details: Mus musculus

Sequence of NACHT, LRR and PYD domains-containing protein 3 (Q96P20 whole entry, the tested form may be a part): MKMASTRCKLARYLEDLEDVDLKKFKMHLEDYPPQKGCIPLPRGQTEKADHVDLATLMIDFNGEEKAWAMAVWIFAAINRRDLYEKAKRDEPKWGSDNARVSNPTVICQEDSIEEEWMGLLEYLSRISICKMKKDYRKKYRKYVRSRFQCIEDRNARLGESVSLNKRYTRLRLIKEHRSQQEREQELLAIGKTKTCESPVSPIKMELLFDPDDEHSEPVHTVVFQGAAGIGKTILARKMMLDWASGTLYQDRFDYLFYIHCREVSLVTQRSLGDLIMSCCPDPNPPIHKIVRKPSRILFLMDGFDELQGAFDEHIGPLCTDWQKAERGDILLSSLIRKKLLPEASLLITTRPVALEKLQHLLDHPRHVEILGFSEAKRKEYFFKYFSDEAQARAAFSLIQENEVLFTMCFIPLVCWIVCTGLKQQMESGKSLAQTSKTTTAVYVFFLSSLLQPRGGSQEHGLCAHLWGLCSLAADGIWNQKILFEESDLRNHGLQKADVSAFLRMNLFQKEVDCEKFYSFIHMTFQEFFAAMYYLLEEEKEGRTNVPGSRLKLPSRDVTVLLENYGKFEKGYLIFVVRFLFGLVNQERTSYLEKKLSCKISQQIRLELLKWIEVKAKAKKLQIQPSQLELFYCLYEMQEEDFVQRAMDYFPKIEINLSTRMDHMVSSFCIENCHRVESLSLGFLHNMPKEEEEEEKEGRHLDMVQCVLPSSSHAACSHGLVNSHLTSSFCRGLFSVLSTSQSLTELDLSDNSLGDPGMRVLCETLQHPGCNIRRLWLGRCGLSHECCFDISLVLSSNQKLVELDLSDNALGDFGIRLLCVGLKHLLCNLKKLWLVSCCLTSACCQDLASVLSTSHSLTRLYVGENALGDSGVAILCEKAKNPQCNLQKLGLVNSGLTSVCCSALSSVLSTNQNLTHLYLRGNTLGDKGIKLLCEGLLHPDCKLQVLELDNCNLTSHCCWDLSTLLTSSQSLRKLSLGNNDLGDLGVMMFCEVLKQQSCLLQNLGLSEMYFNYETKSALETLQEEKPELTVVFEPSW

Cc1nc2ccc(Nc3nc4cc(S(=O)(=O)N5CCOCC5)ccc4o3)cc2s1
IC50 [1]: > 100000 nM (inactive) | IC50 [2]: > 80000 nM (inactive)

CSc1nc(N(C)NC(=O)c2cccc(C)c2)c2ccccc2n1
EC50 [3]: 104 nM (active) | IC50 [4]: 140 nM (active) | EC50 [5]: 73 nM (active) | EC50 [6]: 272 nM (active) | EC50 [7]: < 100 nM (active) | EC50 [8]: < 100 nM (active) | EC50 [9]: < 100 nM (active) | EC50 [10]: 87 nM (active) | IC50 [11]: > 80000 nM (inactive)

COc1ccc2cc(C)c3nnc(SCC(=O)Nc4nc(-c5ccccc5)cs4)n3c2c1
EC50 [12]: 1030 nM (active)

O=C(Nc1cccc(NC(=O)C2CCCC2)c1)c1ccccc1Br
AC50 [13]: 8810 nM (active)

ON=C1c2ccccc2-c2ccc(O)cc21
IC50 [14]: 23600 nM (active) | AC50 [15]: 17600 nM (active)

O=C1CC(c2ccccc2)=C(c2ccccc2)C1
AC50 [16]: 18700 nM (active)

CC[C@@]1(O)C(=O)OCc2c1cc1n(c2=O)Cc2cc3ccccc3nc2-1 [CAMPTOTHECIN]
EC50 [17]: > 55700 nM (not active) | GI50 [18]: 25.4 nM (active) | EC50 [7]: < 100 nM (active) | EC50 [19]: 7.67 nM (active) | GI50 [20]: 24.5 nM (active) | EC50 [21]: > 55700 nM (not active) | EC50 [8]: 134 nM (active) | GI50 [22]: 26.7 nM (active)
